The text below walks through data of US6255317A, “Cholesterol biosynthesis inhibitors” (Hanwha Chemical Corporation, priority 1998, dated 2001).

Like-named read-outs stand apart in the source and are kept apart here.

The nature of series [1]: Acute oral toxicity in SD rats. It is filed as in vivo. As to conditions: rat, in vivo, po, rats. The procedure: (§1) Meanwhile, the toxicity of the compounds of the present invention was mvestigated as follows: i.e., the compounds were suspended into propylene glycol and then orally administered into each of 5 male and female SD rats at the age of 5-weeks that were fasted for 12 hours. Under the usual breeding conditions, general symptoms, weight change and lethal case of the above rats were monitored for two weeks. At the dose over 2,000 mg/kg of the compound nos. […] Rats were safe against the dose of 700 mg/kg of compound no. 8.

The test system of series [2] is SD rats. Nature of the series: Acute oral toxicity in SD rats. The series is classed as in vivo. As to conditions: for general symptoms, weight change and lethal case over two weeks: rat, in vivo. The procedure:
as §1

The target of series [3] is T1, sterol 14-reductase (Rattus norvegicus, UniProt A0ACM8Q6X4).
T1 construct: to give a microsome which was used as an enzyme source of sterol 14-reductase; from tissue
T1 sequence (A0ACM8Q6X4 1-418): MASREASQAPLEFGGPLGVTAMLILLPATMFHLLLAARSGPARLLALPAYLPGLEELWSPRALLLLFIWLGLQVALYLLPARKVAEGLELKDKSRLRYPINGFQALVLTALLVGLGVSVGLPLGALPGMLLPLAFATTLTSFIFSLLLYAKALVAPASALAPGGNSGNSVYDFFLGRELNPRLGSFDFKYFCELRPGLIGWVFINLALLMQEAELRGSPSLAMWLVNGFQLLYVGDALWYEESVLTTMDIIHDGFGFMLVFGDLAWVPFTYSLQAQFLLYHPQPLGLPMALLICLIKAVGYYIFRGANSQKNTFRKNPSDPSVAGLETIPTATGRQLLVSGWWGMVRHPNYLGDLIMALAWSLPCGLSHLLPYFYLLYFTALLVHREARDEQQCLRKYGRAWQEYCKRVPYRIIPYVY
As to the kind of experiment: Sterol 14-reductase assay with rat liver microsomes (substrate 4,4-dimethyl-5α-cholesta-7,14-dien-3β-ol, GLC). It is filed as biochemical, Sprague-Dawley rats. (Liver microsomes are a subcellular fraction often used to study metabolism.)
Description: First, a screening system for sterol 14-reductase was constructed in which 4,4-dimethyl-5α-cholesta-7,14-dien-3β-ol is used as a substrate and then, the effect on the activity of sterol 14-reductase was investigated in the screening system.
The animals were fasted for 12 hours before excising liver tissues and then sacrificed by decapitation at midnight. An aqueous solution containing 0.25M of sucrose was injected into the hepatic portal vein to remove all the blood within the liver, and then, the liver was excised. The liver was homogenated with two volummes of buffer solution 1 (0.1 M potassium phosphate , 1 mM reduced glutathione, 0.5 mM EDTA, 20% (v/v) glycerol, pH 7.4) by repeating pestles over 10 times and then, centrifuged with 900×g for 5 minutes to give a supernatant. The supernatant was centrifuged with 12,000×g for 20 minutes. The supernatant obtained was ultracentrifuged with 105,000×g for 90 minutes to give a microsome which was used as an enzyme source of sterol 14-reductase. Assay against sterol 14-reductase was carried out as follows: 60 nmol of 4,4-dimethyl-5α-cholesta-7,14-dien-3β-ol and the extract from Corydalis Turtschaninowii Besser dissolved into DMSO were added to an assay mixture (total volume 1.0 ml) containing 2 mg of microsomal protein, 2 mM of NADPH and 25 mg of glucose plus 20 units of glucose oxidase with preincubations under nitrogen at 37° C. for 4 min unless otherwise specified to establish anaerobic condition. Buffer A (0.1M potassium phosphate buffer, pH 7.4, including 1 mM reduced glutathione, 0.5 mM EDTA, and 20% (v/v) glycerol) used for incubation had been equilibrated with nitrogen, and nitrogen was exchanged for air in all sealed reaction flasks prior to the start of incubations. Incubation of the complete mixture was carried out anaerobically in sealed flasks for 10 min at 37° C. unless otherwise indicated. Incubations were terminated by the addition of 1 ml of ethanolic KOH followed by heating under reflux for 10 min. Sterols were extracted four times with 4 ml of petroleum ether, and the solvent was evaporated to dryness under a nitrogen stream. The resulting residue was dissolved in 200-500 μl of n-hexane for quantification by GLC at high sensitive attenuation. The activity of sterol 14-reductase was determined with the amount of the substrate wherein the double bonds of 14-carbon were reduced (for the amount reduced by 1 mg of the microsome protein for 1 minute).

The subject of series [4] is Syrian Golden Hamster. Nature of the series: In vivo effect on plasma lipids and glucose in Syrian Golden Hamster. As to conditions: for total cholesterol, LDL-cholesterol, and triglyceride levels (in words): Syrian Golden Hamster, compared with lovastatin; for Glucose, percent change in parentheses / HDL cholesterol, percent change in parentheses / LDL cholesterol, percent change in parentheses / Total cholesterol, percent change in parentheses / Trigly-ceride, percent change in parentheses: against normal diet control, 6.0 mg/kg/day; for Glucose / HDL cholesterol / LDL cholesterol / Total cholesterol / Trigly-ceride: normal diet + 6.0 mg/kg/day, oral, 14 days; for Glucose: hamster; for HDL cholesterol / LDL cholesterol / Total cholesterol / Trigly-ceride: hamster plasma. The procedure:
In order to investigate the effect of the compound of formula (1) of the invention, the compound was orally administered into male Syrian Golden Hamsters having weights of 90~110 g and then blood was taken from each animal. Plasma lipids, i.e., total cholesterol, LDL-cholesterol, HDL-cholesterol and triglycerides were analyzed using an automatic analyzer (Automatic analyzer model Hitachi 7150).
Male Syrian Golden Hamsters weighing 90~110 g distributed from Samyuk Animal Laboratory, Seoul, Korea were bred under the following conditions: They were maintained under reverse light cycle (light cycle: from 6 P.M to 6 A.M; dark cycle: from 6 A.M. to 6 P.M.). The food and water were supplied at 10 A.M. The commercially available standard rodent chows were used. The hamsters were divided into 6 or 7 animals per group. The animals were fasted for 12 hours before administrating the drug. Then, dehydrocoridaline derivatives dissolved in a 0.25% methyl cellulose solution was administered orally for 14 days at the indicated time per a day. After fasting animals for 24 hours from the last administration, blood was extracted using a cardiac puncture and plasma was then isolated. Plasma lipids, i.e., total cholesterol, LDL-cholesterol, HDL-cholesterol and triglyceride values were analyzed using Automatic Analyzer (Hitachi 7150).

The test system of series [5] is human liver HepG2 cell line. As to the kind of experiment: Cholesterol biosynthesis in cultured human liver cell line HepG2 ([1,2-14C]acetate). The series is classed as cell-based. As to conditions: compared with AY9944, comparative drug. The procedure:
Cultured human liver HepG2 cell line was grown on RPMI (Rosewell park Memorial Institute) 1640 culture medium containing 10% […] until 60% of monolayer are formed in a 60 mm culture dish. After replacing the medium with 3 ml of a fresh culture medium containing 10%(v/v) LPDS (Fetal calf lipoprotein-deficient serum), the cells were further grown for 48 hours until 90% of cultivation degree appear. The culture medium was removed and the cell was then washed with PBS. 2 ml of culture medium containing compound no. 8 (final concentration 100 μM) and AY-9944 (final concentration 1 μM) were added thereto. Then, the medium was cultivated at 37° C. for 1 hour under the condition of 95% air/5% carbonic acid gas. AY-9944 which is an inhibitor for sterol 7-reductase was used as a control drug for assuring the present experimental procedure on the inhibition of cholesterol biosynthesis. Thereafter, 3 μCi of [1 ,2-^14 C]acetate (72 mCi/mmol) were added thereto. The cultivation was continued for 2 hours so that the isotope is introduced into the cell and used as a precursor for sterol to be synthesized. Then, the culture medium was completely removed and washed with PBS twice and the cells were collected by scratching. 10 μg of cholesterol, 10 μg of lanosterol and [^3 H]cholesterol (30,000 dpm) were added thereto, and saponification reaction was carried out at 70° C. for an hour by adding 7.5% of methanolic KOH solution. Unsaponified sterol was removed by extracting them three times with 3 ml of petroleum ether and dried with nitrogen purging. The dried samples were redissolved in 200 μl of chloroform. An aliquot of the samples was loaded onto Silicagel 60F thin layer plate and then separated using ethyl acetate/hexane 25/75 (v/v) as the developing solvent. The thin layer film was developed by exposure to Amersham Hyperfilm at -70° C. for 7 days. Cholesterol band were confirmed by comparing the band appeared in the film and that appeared in the iodine-stained thin layer. After scratching the cholesterol band, it was quantified by a liquid scintillation counter.

The mark [6] stands for this setting: read-out: Enzyme Activity (relative in vitro activity for sterol 14-reductase, IC50 class).

The LD50 is the dose at which mortality reaches 50%. In series [1] (female), `CCOc1cc2c(cc1OCC)-c1c(CC)c3ccc(OCC)c(OCC)c3c[n+]1CC2` [Compound No. 5, 2,3,9,10-Tetraethoxy-13-ethylberberine] registered a 50% lethal dose (LD50) at 336 h above 5000 mg/kg. For the same molecule, the LD50 at 336 h in series [1] (male) is above 5000 mg/kg. Further, in series [2], the “general symptoms, weight change and lethal case over two weeks” value was “general symptoms and the body weight change of the animals were normal and the lethal case was not observed”. Also, the IC50 in series [3] (setting [6]) is at most 1 µM. Besides, in series [4], the “total cholesterol, LDL-cholesterol, and triglyceride levels (in words)” value (shortened to “total cholesterol, LDL-cholesterol”) was “markedly decreased”; the “Glucose, percent change in parentheses” value is recorded as -12.4%; the “HDL cholesterol, percent change in parentheses” value (shortened to “HDL cholesterol, percent change”) was -3.2%; the “LDL cholesterol, percent change in parentheses” value (shortened to “LDL cholesterol, percent change”) is on record as -41.2%. Also, in series [4], the “Total cholesterol, percent change in parentheses” value (shortened to “Total cholesterol, percent change”) is reported as -23.5%; the “Trigly-ceride, percent change in parentheses” value (“Trigly-ceride, percent change” for short) was -28.5%; the Glucose was found to be 160.2 ± 20.9 mg/dL; the HDL cholesterol turned out to be 51.1 ± 3.0 mg/dL. In addition, in series [4], the LDL cholesterol was 24.9 ± 3.0 mg/dL, the Total cholesterol turned out to be 97.0 ± 5.6 mg/dL and the Trigly-ceride is 94.7 ± 11.5 mg/dL. In series [5], the “cholesterol biosynthesis in human HepG2 cell line (in words)” value (“cholesterol biosynthesis” below) is reported as “markedly inhibited”.
In series [1] (female), `CCC1=C2c3cc(OC)c(OC)cc3CCN2Cc2c1ccc(OC)c2OC` [Compound No. 46, 13-Ethyldihydropalmatine] came in with an LD50 at 336 h above 3000 mg/kg. The 50% lethal dose (LD50) at 336 h in series [1] (male) was above 3000 mg/kg. In series [2], the “general symptoms, weight change and lethal case over two weeks” value is “general symptoms and the body weight change of the animals were normal and the lethal case was not observed”. The IC50 in series [3] (setting [6]) is at most 1 µM. In series [4], the “total cholesterol, LDL-cholesterol” value is “markedly decreased”; the “Glucose, percent change in parentheses” value was -12.7%; the “HDL cholesterol, percent change” value was -6.8%; the “LDL cholesterol, percent change” value is -50.7%. In series [4], the “Total cholesterol, percent change” value is given as -34.6%; the “Trigly-ceride, percent change” value is reported as -35.6%; the Glucose was found to be 158.8 ± 16 mg/dL; the HDL cholesterol came to 49.2 ± 2.9 mg/dL. Also, in series [4], the LDL cholesterol was 20.8 ± 2.3 mg/dL, the Total cholesterol came to 82.4 ± 5.4 mg/dL and the Trigly-ceride was 85.2 ± 11.0 mg/dL. The “cholesterol biosynthesis” value in series [5] is “markedly inhibited”.
Regarding `CCOc1cc2c(cc1OCC)C1=C(CC)c3ccc(OCC)c(OCC)c3CN1CC2` [Compound No. 47, 13-Ethyl-2,3,9,10-tetraethoxydihydroprotoberberine], in series [3] (setting [6]), the IC50 is at most 1 µM. Also, the “cholesterol biosynthesis” value in series [5] was “markedly inhibited”.
For the molecule `CCc1c2[n+](cc3c(OC)c(OC)ccc13)CCc1cc(OC)c(OC)cc1-2` [Compound No. 8, 13-Ethylpalmatine], the 50% lethal dose (LD50) at 336 h in series [1] (female) was above 760 mg/kg. In series [1] (male), the LD50 at 336 h was above 925 mg/kg. Besides, in series [2] (dose of 700 mg/kg, oral, SD rats), the “safety of rats at single oral dose” value is “safe”. Besides, the IC50 in series [3] (dissolved in DMSO, read-out: concentration of active ingredient in the assay at which 50% of inhibitory effect was observed (sterol 14-reductase)) was in the range of 100 to 3000 µM. The IC50 in series [3] (setting [6]) was at most 1 µM. Besides, in series [4], the “total cholesterol, LDL-cholesterol” value was “markedly decreased”; the “Glucose, percent change in parentheses” value is -10.9%; the “HDL cholesterol, percent change” value is -1.8%; the “LDL cholesterol, percent change” value was -42.0%. For the same molecule, in series [4], the “Total cholesterol, percent change” value is given as -25.4%; the “Trigly-ceride, percent change” value was -31.7%; the Glucose stood at 162.2 ± 11.3 mg/dL; the HDL cholesterol came to 47.5 ± 3.0 mg/dL. For the same molecule, in series [4], the LDL cholesterol was 24.5 ± 1.8 mg/dL, the Total cholesterol amounted to 94.0 ± 6.6 mg/dL and the Trigly-ceride is 90.4 ± 8.9 mg/dL. Moreover, in series [5], the “cholesterol biosynthesis” value is listed as “markedly inhibited”.
For `CCC1=C2c3cc(OC)c(OC)cc3CCN2C(CC(C)=O)c2c1ccc(OC)c2OC` (centres unmarked) [Compound No. 37, 8-Acetonyl-13-ethyldihydropalmatine], in series [1] (female), the LD50 at 336 h was above 2000 mg/kg. Also, the 50% lethal dose (LD50) at 336 h in series [1] (male) was above 2500 mg/kg. In addition, the “general symptoms, weight change and lethal case over two weeks” value in series [2] was “general symptoms and the body weight change of the animals were normal and the lethal case was not observed”. Further, the IC50 in series [3] (setting [6]) was at most 1 µM. In addition, in series [4], the “total cholesterol, LDL-cholesterol” value is given as “markedly decreased”; the “Glucose, percent change in parentheses” value is recorded as -23.0%; the “HDL cholesterol, percent change” value was “+2.0%”; the “LDL cholesterol, percent change” value is on record as -52.1%. Besides, in series [4], the “Total cholesterol, percent change” value is given as -33.5%; the “Trigly-ceride, percent change” value is given as -48.1%; the Glucose worked out at 140.4 ± 15 mg/dL; the HDL cholesterol is 54.2 ± 3.0 mg/dL. Further, in series [4], the LDL cholesterol amounted to 20.2 ± 2.0 mg/dL, the Total cholesterol stood at 83.8 ± 5.6 mg/dL and the Trigly-ceride stood at 68.8 ± 11.5 mg/dL. Moreover, the “cholesterol biosynthesis” value in series [5] was “markedly inhibited”.
As for `CCC(=O)CC1c2c(ccc(OC)c2OC)C(CC)=C2c3cc(OC)c(OC)cc3CCN21` (centres unmarked) [Compound No. 38, 8-(butan-2-one-1-yl)-13-ethyldihydropalmatine], the IC50 in series [3] (setting [6]) was at most 1 µM. Further, the “cholesterol biosynthesis” value in series [5] is reported as “markedly inhibited”.
For `CC[C@H](C)C(=O)O[C@H]1C[C@@H](C)C=C2C=C[C@H](C)[C@H](CC[C@@H]3C[C@@H](O)CC(=O)O3)[C@H]21` [lovastatin, reference compound], in series [4], the “Glucose, percent change in parentheses” value was “+1.0%”; the “HDL cholesterol, percent change” value is -2.6%; the “LDL cholesterol, percent change” value is -29.1%; the “Total cholesterol, percent change” value was -22.7%. For the same molecule, in series [4], the Glucose is 184.6 ± 23.2 mg/dL, the HDL cholesterol was determined as 51.4 ± 2.6 mg/dL, the LDL cholesterol stood at 29.9 ± 1.9 mg/dL and the Total cholesterol was 97.4 ± 3.4 mg/dL. Further, in series [4], the Trigly-ceride stood at 182.6 ± 17.0 mg/dL.
`CCc1c2[n+](cc3c(OC)c(OC)ccc13)CCc1cc3c(cc1-2)OCO3` [Compound No. 6, 13-Ethylberberine]: the IC50 in series [3] (setting [6]) is at most 1 µM. In addition, the “cholesterol biosynthesis” value in series [5] is reported as “markedly inhibited”.
